Test results: US20260193264A1, “BENZOYPARAZINE PYRAZINES AND THEIR USES” (FOGHORN THERAPEUTICS INC., priority 2022, published 2026)

Assays:
[1] = molecular target: T1, HiBiT-BRM fusion protein in stable HeLa cell line (Homo sapiens, UniProt P51531); test: HiBiT-BRM cell-based degradation assay (Nano-Glo HiBiT Lytic Detection, 24 h); design: DC50: scale not given here; conditions: HeLa HiBiT-BRM cells; for DC50: read-out: BRM HiBit Degradation IC50; for BRM HiBit Degradation Maximum (%): top dose 30 μM
T1 construct: expressed in transfected cells
T1 sequence (P51531 whole entry, the tested form may be a part): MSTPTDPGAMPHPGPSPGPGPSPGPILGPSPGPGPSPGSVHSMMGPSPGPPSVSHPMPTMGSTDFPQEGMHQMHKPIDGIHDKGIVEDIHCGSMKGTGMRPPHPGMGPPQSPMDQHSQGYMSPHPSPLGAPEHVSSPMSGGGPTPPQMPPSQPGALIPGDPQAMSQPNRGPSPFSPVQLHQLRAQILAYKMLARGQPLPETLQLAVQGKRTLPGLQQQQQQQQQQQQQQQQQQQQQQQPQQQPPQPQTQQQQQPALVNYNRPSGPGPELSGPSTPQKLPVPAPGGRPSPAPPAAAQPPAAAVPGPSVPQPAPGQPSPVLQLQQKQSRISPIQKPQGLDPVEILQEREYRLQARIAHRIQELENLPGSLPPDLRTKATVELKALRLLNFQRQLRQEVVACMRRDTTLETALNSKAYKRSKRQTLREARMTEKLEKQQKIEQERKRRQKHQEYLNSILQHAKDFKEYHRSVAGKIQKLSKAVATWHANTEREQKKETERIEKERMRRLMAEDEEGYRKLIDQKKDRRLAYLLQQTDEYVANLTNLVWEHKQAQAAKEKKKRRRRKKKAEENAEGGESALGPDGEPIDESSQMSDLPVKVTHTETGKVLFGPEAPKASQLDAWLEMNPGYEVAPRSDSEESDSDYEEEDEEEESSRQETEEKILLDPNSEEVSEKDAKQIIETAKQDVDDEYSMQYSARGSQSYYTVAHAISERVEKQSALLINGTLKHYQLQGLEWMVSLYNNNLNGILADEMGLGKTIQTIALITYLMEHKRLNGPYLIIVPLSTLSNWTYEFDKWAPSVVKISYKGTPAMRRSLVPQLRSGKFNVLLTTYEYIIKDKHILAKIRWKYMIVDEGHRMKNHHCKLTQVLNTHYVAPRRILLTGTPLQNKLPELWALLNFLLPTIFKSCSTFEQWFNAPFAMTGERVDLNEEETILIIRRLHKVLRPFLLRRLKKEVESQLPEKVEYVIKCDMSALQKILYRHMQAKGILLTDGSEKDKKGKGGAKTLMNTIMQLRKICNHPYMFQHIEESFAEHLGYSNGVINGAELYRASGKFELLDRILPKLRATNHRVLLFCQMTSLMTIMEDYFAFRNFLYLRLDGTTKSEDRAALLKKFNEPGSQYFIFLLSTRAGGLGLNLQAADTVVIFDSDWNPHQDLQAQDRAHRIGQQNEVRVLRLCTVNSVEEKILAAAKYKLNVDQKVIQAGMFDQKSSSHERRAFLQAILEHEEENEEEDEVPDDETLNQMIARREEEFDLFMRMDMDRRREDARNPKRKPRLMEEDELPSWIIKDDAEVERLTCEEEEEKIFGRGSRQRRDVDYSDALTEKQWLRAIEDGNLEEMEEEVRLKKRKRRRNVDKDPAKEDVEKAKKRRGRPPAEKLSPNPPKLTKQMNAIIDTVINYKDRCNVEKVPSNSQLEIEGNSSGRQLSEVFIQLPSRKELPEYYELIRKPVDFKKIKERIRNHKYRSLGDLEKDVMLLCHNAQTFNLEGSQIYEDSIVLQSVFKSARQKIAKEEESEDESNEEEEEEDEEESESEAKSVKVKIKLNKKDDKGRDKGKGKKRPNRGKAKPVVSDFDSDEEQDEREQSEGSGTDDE
In short: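 Luminescence from HiBiT/LgBiT complementation after lysis reports remaining HiBiT-BRM in stable HeLa cells exposed to compound for 24 h. Dosing used 3-fold serial dilutions, 10 points, 30 μM top final concentration. DMSO and a 2 μM BRM/BRG1 degrader standard defined 0% and 100% degradation.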

[2] = molecular target: T2, HiBit-BRG1 fusion protein in stable HeLa cell line expressing HiBit-BRG1 and LgBit (Homo sapiens, UniProt P51532); test: HiBiT-BRG1 cell-based degradation assay (Nano-Glo HiBiT, 24 h); conditions: HeLa HiBit-BRG1/LgBit cells; for DC50: read-out: BRMG1 HiBit Degradation IC50; for Dmax: top dose 30 μM, read-out: BRG1 HiBit Degradation Maximum (%)
T2 construct: expressed in transfected cells
T2 sequence (P51532 whole entry, the tested form may be a part): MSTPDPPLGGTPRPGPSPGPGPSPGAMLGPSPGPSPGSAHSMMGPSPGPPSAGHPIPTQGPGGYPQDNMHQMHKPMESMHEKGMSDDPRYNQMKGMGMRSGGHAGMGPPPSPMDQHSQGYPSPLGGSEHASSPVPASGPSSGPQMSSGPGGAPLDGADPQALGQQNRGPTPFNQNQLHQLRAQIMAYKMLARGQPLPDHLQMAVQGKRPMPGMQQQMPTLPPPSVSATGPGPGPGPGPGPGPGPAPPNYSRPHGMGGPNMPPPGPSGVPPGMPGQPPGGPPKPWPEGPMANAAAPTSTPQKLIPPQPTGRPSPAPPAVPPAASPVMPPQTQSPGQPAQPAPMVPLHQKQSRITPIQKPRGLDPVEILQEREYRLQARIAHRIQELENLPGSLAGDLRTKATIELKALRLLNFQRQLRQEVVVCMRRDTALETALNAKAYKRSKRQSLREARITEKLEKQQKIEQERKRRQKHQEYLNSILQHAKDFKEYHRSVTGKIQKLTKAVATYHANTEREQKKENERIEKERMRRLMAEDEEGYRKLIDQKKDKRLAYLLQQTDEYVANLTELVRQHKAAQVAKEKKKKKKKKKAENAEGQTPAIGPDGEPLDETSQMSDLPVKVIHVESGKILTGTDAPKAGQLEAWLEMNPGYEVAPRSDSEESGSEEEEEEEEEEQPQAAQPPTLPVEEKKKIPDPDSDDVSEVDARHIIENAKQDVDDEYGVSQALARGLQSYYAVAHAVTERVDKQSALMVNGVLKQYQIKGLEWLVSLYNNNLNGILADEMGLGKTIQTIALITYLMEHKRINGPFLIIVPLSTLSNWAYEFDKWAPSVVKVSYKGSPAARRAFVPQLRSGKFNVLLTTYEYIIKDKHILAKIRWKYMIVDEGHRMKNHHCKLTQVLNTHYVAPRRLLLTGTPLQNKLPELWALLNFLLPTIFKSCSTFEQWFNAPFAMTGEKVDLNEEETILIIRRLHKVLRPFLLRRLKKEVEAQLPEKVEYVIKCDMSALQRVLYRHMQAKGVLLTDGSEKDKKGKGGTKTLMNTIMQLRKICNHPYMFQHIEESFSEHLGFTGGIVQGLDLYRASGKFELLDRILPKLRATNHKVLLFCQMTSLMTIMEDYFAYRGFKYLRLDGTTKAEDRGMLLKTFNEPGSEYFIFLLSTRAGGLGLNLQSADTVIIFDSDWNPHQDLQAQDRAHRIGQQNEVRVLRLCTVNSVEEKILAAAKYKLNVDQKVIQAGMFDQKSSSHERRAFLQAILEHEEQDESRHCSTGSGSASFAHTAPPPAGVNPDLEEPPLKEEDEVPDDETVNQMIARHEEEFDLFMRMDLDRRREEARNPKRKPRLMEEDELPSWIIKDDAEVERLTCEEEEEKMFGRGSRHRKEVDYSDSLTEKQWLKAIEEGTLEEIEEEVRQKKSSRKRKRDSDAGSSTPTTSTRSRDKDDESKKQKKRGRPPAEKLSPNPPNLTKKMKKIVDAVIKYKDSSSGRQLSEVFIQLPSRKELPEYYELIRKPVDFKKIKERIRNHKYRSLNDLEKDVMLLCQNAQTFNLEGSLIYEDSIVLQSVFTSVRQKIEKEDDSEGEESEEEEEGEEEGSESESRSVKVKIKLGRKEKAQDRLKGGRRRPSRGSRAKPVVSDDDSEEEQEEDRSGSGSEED
In short: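 Stable HeLa line co-expressing HiBiT-BRG1 and LgBiT, compound-treated 24 h; luminescence read after Nano-Glo HiBiT lytic reagent. % degradation normalised between DMSO (high control) and 2 μM reference BRM/BRG1 degrader (low control).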

Cc1ncsc1-c1ccc([C@H](C)NC(=O)[C@@H]2C[C@@H](O)CN2C(=O)C(C(C)C)n2cc(N3CCN(CN4CCN(c5ccc6nnc(-c7ccccc7O)cc6c5)CC4)CC3)nn2)cc1 (stereo partly drawn) [Compound 282]
DC50 [1]: < 10 nM | BRM HiBit Degradation Maximum (%) [1]: A (“A” indicates maximum degradation ≥75%) | DC50 [2]: < 10 nM | Dmax [2]: > 75%

Cc1ncsc1-c1ccc([C@H](C)NC(=O)[C@@H]2C[C@@H](O)CN2C(=O)[C@@H](c2cc(N3CCOC4(CCN(c5ccc6cc(-c7ccccc7O)nnc6c5)CC4)C3)no2)C(C)C)cc1 [Compound 148, (2S,4R)-4-hydroxy-1-((R)-2-(3-(9-(3-(2-hydroxyphenyl)cinnolin-7-yl)-1-oxa-4,9-diazaspiro [5.5]undecan-4-yl)isoxazol-5-yl)-3-methylbutanoyl)-N-((S)-1-(4-(4-methylthiazol-5-yl)phenyl)ethyl)pyrrolidine-2-carboxamide]
DC50 [1]: < 10 nM | BRM HiBit Degradation Maximum (%) [1]: A (“A” indicates maximum degradation ≥75%) | DC50 [2]: < 10 nM | Dmax [2]: > 75%

Cc1ncsc1-c1ccc([C@H](C)NC(=O)[C@@H]2C[C@@H](O)CN2C(=O)[C@@H](c2cc(N3CCC[C@H](c4ccc5cc(-c6ccccc6O)nnc5c4)C3)no2)C(C)C)cc1 [Compound 90, (2S,4R)-4-hydroxy-1-((R)-2-(3-((R)-3-(3-(2-hydroxyphenyl)cinnolin-7-yl)piperidin-1-yl)isoxazol-5-yl)-3-methylbutanoyl)-N-((S)-1-(4-(4-methylthiazol-5-yl)phenyl)ethyl)pyrrolidine-2-carboxamide]
DC50 [1]: < 10 nM | BRM HiBit Degradation Maximum (%) [1]: A (“A” indicates maximum degradation ≥75%) | DC50 [2]: < 10 nM | Dmax [2]: > 75%

CC(C)[C@@H](C(=O)N1C[C@H](O)C[C@H]1C(=O)N[C@@H](C)c1ccc(C#N)cc1)n1cc(N2CC3(CN(c4ccc5cc(-c6ccccc6O)nnc5c4)C3)C2)nn1 [Compound 202, (2S,4R)-N-((S)-1-(4-cyanophenyl)ethyl)-4-hydroxy-1-((S)-2-(4-(6-(3-(2-hydroxyphenyl)cinnolin-7-yl)-2,6-diazaspiro[3.3]heptan-2-yl)-1H-1,2,3-triazol-1-yl)-3-methylbutanoyl)pyrrolidine-2-carboxamide]
DC50 [1]: < 10 nM | BRM HiBit Degradation Maximum (%) [1]: A (“A” indicates maximum degradation ≥75%) | DC50 [2]: > 10 nM | Dmax [2]: > 50%

Cc1ncsc1-c1ccc([C@H](C)NC(=O)[C@@H]2C[C@@H](O)CN2C(=O)[C@@H](c2cc(N3CC4(CC(Oc5ccc6cc(-c7ccccc7O)nnc6c5)C4)C3)no2)C(C)C)cc1 [Compound 84, (2S,4R)-4-hydroxy-1-((R)-2-(3-(6-((3-(2-hydroxyphenyl)cinnolin-7-yl)oxy)-2-azaspiro[3.3]heptan-2-yl)isoxazol-5-yl)-3-methylbutanoyl)-N-((S)-1-(4-(4-methylthiazol-5-yl)phenyl)ethyl)pyrrolidine-2-carboxamide]
DC50 [1]: < 10 nM | BRM HiBit Degradation Maximum (%) [1]: A (“A” indicates maximum degradation ≥75%) | DC50 [2]: > 10 nM | Dmax [2]: > 50%

Cc1ncsc1-c1ccc([C@H](C)NC(=O)[C@@H]2C[C@@H](O)CN2C(=O)[C@@H](c2cc(N3CCC4(CC3)CN(c3ccc5nnc(-c6ccccc6O)cc5c3)C4)no2)C(C)C)cc1 [Compound 67, (2S,4R)-4-hydroxy-1-((R)-2-(3-(2-(3-(2-hydroxyphenyl)cinnolin-6-yl)-2,7-diazaspiro[3.5]nonan-7-yl)isoxazol-5-yl)-3-methylbutanoyl)-N-((S)-1-(4-(4-methylthiazol-5-yl)phenyl)ethyl)pyrrolidine-2-carboxamide]
DC50 [1]: < 10 nM | BRM HiBit Degradation Maximum (%) [1]: A (“A” indicates maximum degradation ≥75%) | DC50 [2]: > 10 nM | Dmax [2]: > 75%

Cc1ncsc1-c1ccc([C@H](C)NC(=O)[C@@H]2C[C@@H](O)CN2C(=O)C(C(C)C)n2cc(N3CCC4(CCN4c4ccc5nnc(-c6ccccc6O)cc5c4)C3)nn2)cc1 (stereo partly drawn) [Compound 277]
DC50 [1]: < 10 nM | BRM HiBit Degradation Maximum (%) [1]: A (“A” indicates maximum degradation ≥75%) | Dmax [2]: < 50%
